Laboratory results from patent publication EP4722195A1, “PH-SENSITIVE CATIONIC LIPID AND LIPID NANOPARTICLES” (National University Corporation Hokkaido University, priority 2023, dated 2024).

Tests used:
[1] = Average particle size and polydispersity index of lipid nanoparticles (dynamic light scattering); format: physicochemical
Protocol: (§1) The average particle size (number average value), ζ-average particle size, and polydispersity index (PdI) of the lipid nanoparticles in PBS(-) (pH 7.4), and the zeta potential in 10 mM HEPES buffer (pH 7.4) were measured using an analyzer "Zetasizer Nano ZS ZEN3600" (manufactured by Malvern) utilizing dynamic light scattering.

[2] = Zeta potential of lipid nanoparticles; format: physicochemical
Protocol: as §1

[3] = Encapsulation rate of lipid nanoparticles (Ribogreen); format: physicochemical
How it was run: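 Ribogreen fluorescence (Ex/Em 500/525 nm) measured after mixing sample 1:1 with 10 mM HEPES pH 7.4 buffer with or without Triton X-100. mRNA quantified from a calibration curve of known mRNA dilutions; encapsulation rate (%) calculated from Triton(+) versus Triton(−) signals.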

liver = assay: Fluc activity in the liver of mice administered Fluc mRNA-loaded lipid nanoparticles; format: in vivo, BALB/c mice
Protocol: Lipid nanoparticles were administered to mice by intravenous injection into the tail vein using a 27G needle. Unless otherwise specified, BALB/c mice (4 to 5 weeks old, female) were used.
First, BALB/c mice (female, 4 weeks old) were intravenously injected with lipid nanoparticles encapsulating Fluc mRNA (Fluc mRNA-loaded lipid nanoparticles) at a dose of 0.1 mg mRNA/kg. Six hours after intravenous injection, the mice were euthanized, each tissue was collected, frozen in liquid nitrogen, and stored at -80°C. The tissues were homogenized in passive lysis buffer (manufactured by Promega) using a bead-type cell disruptor (Micro Smash MS-100R, manufactured by TOMY Seiko). Tissue debris was removed by centrifugation, and the supernatant was collected. Fluc activity in the supernatant was measured using the Luciferase Assay System (E1500, manufactured by Promega) according to the manufacturer's protocol. Luminescence was measured using a luminometer (Luminescencer-PSN, manufactured by ATTO). Protein concentration was determined using a commercially available assay kit (BCA Protein Assay Kit, manufactured by Pierce). Fluc activity was expressed as relative light units (RLU) per mg of protein.
Subsequently, lipid nanoparticles encapsulating Fluc mRNA prepared using TxT-5-5A10, TxT-5-5A12, TxT-5-5A12β, TxT-5-5A14, and TxT-5-5A16 were administered to mice to evaluate luciferase expression levels (Fluc activity) in various tissues. Specifically, each Fluc mRNA-loaded lipid nanoparticle was administered to Balb/c mice at a dose of 0.1 mg mRNA/kg. Six hours after administration, the mice were euthanized, and their organs were collected to measure Fluc activity (RLU/mg protein) (N = 2 or 4).

[4] = Apparent pKa of lipid nanoparticles (TNS)
[5] = Table 1, Fluc mRNA-loaded lipid nanoparticles, TxT/DSPC/chol/PEG-DMG=50/15/35/1.5 (mol%)
[6] = Table 2, Fluc mRNA-loaded lipid nanoparticles, TxT-5-5A16/DSPC/chol/PEG-DMG=50/X/50-X/1.5 (mol%), DSPC concentration 3 mol %
[7] = Table 2, Fluc mRNA-loaded lipid nanoparticles, TxT-5-5A16/DSPC/chol/PEG-DMG=50/X/50-X/1.5 (mol%), DSPC concentration 6 mol %
[8] = Table 2, Fluc mRNA-loaded lipid nanoparticles, TxT-5-5A16/DSPC/chol/PEG-DMG=50/X/50-X/1.5 (mol%), DSPC concentration 9 mol %
[9] = Table 2, Fluc mRNA-loaded lipid nanoparticles, TxT-5-5A16/DSPC/chol/PEG-DMG=50/X/50-X/1.5 (mol%), DSPC concentration 12 mol %
[10] = Table 2, Fluc mRNA-loaded lipid nanoparticles, TxT-5-5A16/DSPC/chol/PEG-DMG=50/X/50-X/1.5 (mol%), DSPC concentration 15 mol %
[11] = Table 3, Fluc mRNA-loaded lipid nanoparticles, TxT/DSPC/chol/PEG-DMG=50/3/47/1.5 (mol%)
[12] = Table 5, EGFP mRNA-loaded lipid nanoparticles, TxT/DSPC/chol/PEG-DMG=50/3/47/1.5 (mol%), total flow rate 3.0 mL/min
[13] = Example 23, Fig. 2A, TxT-5-5A16/DSPC/chol/PEG-DMG=50/X/50-X/1.5 (mol%), 0.1 mg mRNA/kg, six hours

Pdl [1, 5]: 0.11
number average particle size [1, 5]: 61.0 nm
ζ-average particle size [1, 5]: 85.6 nm
Pdl [1, 6]: 0.0
number average particle size [1, 6]: 93.3 nm
ζ-average particle size [1, 6]: 114.0 nm
Pdl [1, 7]: 0.04
number average particle size [1, 7]: 78.6 nm
ζ-average particle size [1, 7]: 96.8 nm
Pdl [1, 8]: 0.08
number average particle size [1, 8]: 66.3 nm
ζ-average particle size [1, 8]: 90.2 nm
Pdl [1, 9]: 0.07
number average particle size [1, 9]: 64.4 nm
ζ-average particle size [1, 9]: 85.1 nm
Pdl [1, 10]: 0.14
number average particle size [1, 10]: 60.8 nm
ζ-average particle size [1, 10]: 88.3 nm
Pdl [1, 11]: 0.03
number average particle size [1, 11]: 93.3 nm
ζ-average particle size [1, 11]: 114.0 nm
Pdl [1, 12]: 0.04
number average particle size [1, 12]: 112.5 nm
ζ-average particle size [1, 12]: 132.4 nm
ζ-potential [2, 5]: -3.3 mV
ζ-potential [2, 6]: -2.7 mV
ζ-potential [2, 7]: -2.4 mV
ζ-potential [2, 8]: -2.2 mV
ζ-potential [2, 9]: -1.9 mV
ζ-potential [2, 10]: -4.1 mV
ζ-potential [2, 11]: -2.7 mV
ζ-potential [2, 12]: -8.4 mV
mRNA concentration [3, 5]: 0.020 µg/µL
mRNA encapsulation rate [3, 5]: 96.7%
mRNA concentration [3, 6]: 0.023 µg/µL
mRNA encapsulation rate [3, 6]: 98.8%
mRNA concentration [3, 7]: 0.024 µg/µL
mRNA encapsulation rate [3, 7]: 98.9%
mRNA concentration [3, 8]: 0.024 µg/µL
mRNA encapsulation rate [3, 8]: 98.3%
mRNA concentration [3, 9]: 0.024 µg/µL
mRNA encapsulation rate [3, 9]: 97.0%
mRNA concentration [3, 10]: 0.020 µg/µL
mRNA encapsulation rate [3, 10]: 95.6%
mRNA concentration [3, 11]: 0.023 µg/µL
mRNA encapsulation rate [3, 11]: 98.8%
mRNA concentration [3, 12]: 0.022 µg/µL
mRNA encapsulation rate [3, 12]: 99.2%
pKa ([4]; Table 1, apparent pKa of Fluc mRNA-loaded lipid nanoparticles, TxT/DSPC/chol/PEG-DMG=50/15/35/1.5 (mol%)): 6.27
pKa [4, 6]: 6.28
pKa [4, 7]: 5.88
pKa [4, 8]: 5.41
pKa [4, 9]: 6.24
pKa [4, 10]: 6.36
pKa [4, 11]: 6.28
SMILES: CCCCCCCCN(CCCCCCCC)C(=O)CCCC(=O)OCC(COC(=O)CCCC(=O)N(CCCCCCCC)CCCCCCCC)(COC(=O)CCCC(=O)N(CCCCCCCC)CCCCCCCC)NC(=O)CCN1CCCCC1 [TxT-5-5A16, 2-(((5-(dioctylamino)-5-oxopentanoyl)oxy)methyl)-2-(3-(piperidin-1-yl)propanamido)propane-1,3-diyl bis(5-(dioctylamino)-5-oxopentanoate)]
Fluc activity in the liver (liver; Example 22, Fig. 1, TxT/DSPC/chol/PEG-DMG=50/15/35/1.5 (mol%), 0.1 mg mRNA/kg intravenous, six hours after administration, comparison among TxT lipids): highest Fluc activity in the liver
Effect of DSPC content on Fluc activity in the liver (liver; [13]): Fluc activity increased as the DSPC content decreased
Fluc activity in the liver, 3 mol% DSPC compared to 15 mol% DSPC (liver; [13]): approximately 10 times
